From patent US11382920B2, “Therapeutic effects of Guanabenz treatment in vanishing white matter” (Stichting VUmc, priority 2017, dated 2022)

What was measured:
[1] = system: mRNAs encoding ATF4 and ATF4-regulated targets CHOP and TRIB3; assay: ISR marker mRNA levels in brain tissue (qPCR) after one Gb injection; type: in vivo, mouse; settings: one dose 10 mg/kg i.p., vs saline
Protocol: (§1) FIG. 10. […] Statistical analysis was performed with two-way ANOVA (*, p<0.05, **, p<0.01, ***, p<0.001).
(§2) As (unpublished) part of this study, we investigated the effect of Gb on the expression of ATF4 and its regulated transcriptome in mice. […] In short, we injected one dose of 10 mg/kg Gb intraperitoneally into four wildtype (wt) and four 2b5ho mice. Saline-injected wt and 2b5ho mice were used as negative controls for measuring Gb effects on ISR markers. […] Organs were removed, snap frozen in liquid nitrogen and stored at −80° C. Tissue samples for RNA and protein analyses were prepared as described. In postmortem brain tissue we measured levels of phosphorylated eIF2a with Western blot and levels of mRNAs encoding ATF4 and ATF4-regulated targets CHOP and TRIB3 with qPCR.

[2] = system: 2b5^ho mice; assay: In situ hybridization for Plp-expressing cells after Guanabenz treatment; type: in vivo, mouse; settings: Guanabenz i.p. weekly 2-10 months, forebrain (corpus callosum) and cerebellum, vs saline
Protocol: (§3) Tissue sections of 11 WT and 10 2b5^ho (carrying a homozygous Arg191His mutation in the Eif2b5 gene [7]) animals of 2, 5 or 7 months of age were collected after intracardiac perfusion with 4% paraformaldehyde (PFA). The brains were postfixed in 4% PFA for 1-2 days, after which half of the brain was embedded in paraffin and the other half was incubated overnight in 30% sucrose and snapfrozen in optimum cutting temperature compound (Sakura). […] To test the effect of Guanabenz, 11 female 2b5^ho littermates were injected with saline (n=5) or Guanabenz (10 mg/kg; n=6) i.p. every week from 2 months until 10 months of age. Animals were randomly assigned to the Guanabenz or saline group, and single animals were taken as experimental units. At 11 months of age all mice were sacrificed and the brains were used for analysis. The brains of 3 saline- and 4 Guanabenz-injected animals were perfused as described and used for immunostaining and in situ hybridization. […]
In situ hybridization targeting proteolipid protein (Plp) mRNA was performed on PFA-fixed snapfrozen tissue as previously described [7, 25]. […] The number of Plp-positive cells was analyzed in the rostrum and splenium of the corpus callosum, and in the white matter of the cerebellum. For each area 3 different pictures were taken with a 100× objective lens and cells were counted in a 100×200 μm square.

[3] = system: 2b5^ho mice; assay: Analysis of Bergmann glia translocation (S100ß/GFAP staining) after Guanabenz treatment; type: in vivo, mouse
Protocol: Tissue sections of 11 WT and 10 2b5^ho (carrying a homozygous Arg191His mutation in the Eif2b5 gene [7]) animals of 2, 5 or 7 months of age were collected after intracardiac perfusion with 4% paraformaldehyde (PFA). The brains were postfixed in 4% PFA for 1-2 days, after which half of the brain was embedded in paraffin and the other half was incubated overnight in 30% sucrose and snapfrozen in optimum cutting temperature compound (Sakura). […] To test the effect of Guanabenz, 11 female 2b5^ho littermates were injected with saline (n=5) or Guanabenz (10 mg/kg; n=6) i.p. every week from 2 months until 10 months of age. Animals were randomly assigned to the Guanabenz or saline group, and single animals were taken as experimental units. At 11 months of age all mice were sacrificed and the brains were used for analysis. […]
(§4) Mouse tissue was processed for immunostaining as previously described [7]. […] Stainings were analyzed with a LeicaDM6000B microscope (Leica Microsystems). […]
Bergmann glia pathology was analyzed in S100ß-stained sections. […] All the S100-positive cell bodies inside this band were counted and considered correctly localized. The S100ß-positive cell bodies located outside the band in the molecular layer were counted and considered as translocated Bergmann glia. The amount of translocated cell bodies was expressed as a ratio to the total number of S100ß-positive cell bodies counted.

[4] = system: 2b5^ho mice; assay: Nestin cell count in corpus callosum after Guanabenz treatment of VWM mice; type: in vivo, mouse; settings: Guanabenz i.p. weekly from 2 to 10 months of age, analysed at 11 months, vs saline, p=0.289, not significant
Protocol: as §3, §4
Astrocytes double-positive for nestin and GFAP were counted in the splenium and rostrum of the corpus callosum, on 100× magnification pictures. Total cell number was determined by counting the DAPI-positive nuclei. For each animal, at least 3 slices were stained and counted. […]

[5] = in vivo; cited from earlier work
[6] = system: 2b5^ho mice; assay: Western blot for myelin proteins MBP and MOG after Guanabenz treatment; type: in vivo, mouse; settings: Guanabenz vs saline, n=2
Protocol: To test the effect of Guanabenz, 11 female 2b5^ho littermates were injected with saline (n=5) or Guanabenz (10 mg/kg; n=6) i.p. every week from 2 months until 10 months of age. Animals were randomly assigned to the Guanabenz or saline group, and single animals were taken as experimental units. At 11 months of age all mice were sacrificed and the brains were used for analysis. The brains of 3 saline- and 4 Guanabenz-injected animals were perfused as described and used for immunostaining and in situ hybridization. The brains of 2 saline- and 2 Guanabenz-injected animals were snapfrozen in liquid nitrogen and used for western blot analysis. No animals were excluded from any analysis.
Half of the forebrain and the whole cerebellum of 2 saline- and 2 Guanabenz-treated animals were separately used for western blot analysis. Forebrains were lysed in lysis buffer (50 mM Hepes, 150 mM NaCl, 1 mM EDTA, 2.5 mM ethylene glycol-bis(β-aminoethyl-ether)-N,N,N′,N′-tetraacetic acid, 0.1% Triton-X100, 10% glycerol, 1 mM dithiothreitol) supplemented with protease inhibitor cocktail (ThermoFisher Scientific) using a dounce tissue grinder (Sigma-Aldrich). […] Supernatants were collected and protein concentrations were measured with a Bradford assay. […] Secondary antibodies were raised against mouse or rabbit and conjugated with horseradish peroxidase. Blots were developed with SuperSignal™ West Femto Maximum Sensitivity Substrate (ThermoFisher Scientific) and measured in an Odyssey® Fc Imaging System (LI-COR Inc). Intensity of bands was quantified with ImageJ software and corrected for total amount of protein.

[7] = system: eIF2a phosphorylation; assay: eIF2a phosphorylation in brain tissue (Western blot) after one Gb injection; type: in vivo, mouse; settings: wt and 2b5ho mice, one dose 10 mg/kg i.p., vs saline
Protocol: as §1, §2

[8] = system: ATF4 expression; assay: Stress-sensitive ATF4 luciferase reporter transfection assay (pNL1.1-mATF4) in U373 cells; type: cell-based, human; settings: 15 μM compound added with 3 nM thapsigargin for 16 hours
Protocol: FIG. 9. […] ATF4 expression was assessed with a luciferase reporter construct under regulation of the murine Atf4 promoter and 5′ non-coding region. Cells were transfected as described. The ISR was induced by administration of 3 nM thapsigargin (TG) to the cell culture medium. […] Guanfacin (Gf), an a2 adrenergic receptor agonist without reported GADD34 modulating activity, was included in parallel as negative control. […] Statistical analyses were performed for individual compounds with a paired t-test (*, p<0.05, **, p<0.01).
The a2 adrenergic receptor agonist Guanabenz (Gb) has been reported to also target GADD34 and thereby impact on a negative feedback loop of the ISR [16]. GADD34 promotes dephosphorylation of eIF2P. Gb is thought to inhibit GADD34, it is thereby though to increase and prolong eIF2a phosphorylation and consequently increases production of ATF4 and its regulated transcriptome. We tested the effect of Gb on ATF4 production in U373 cell lines using a stress-sensitive transfection assay. Transfections were performed with the pNL1.1-mATF4 reporter construct, in which expression of the reporter gene is controlled by ISR-responsive sequences. Expression from the reporter construct was measured 2 days after transfection with a commercially available chemiluminescent assay and can be directly interpreted as a measure for ATF4 expression.
ATF4 expression was investigated in the absence or presence of ISR activation. […] Gb was added together with thapsigargin to the culture medium to test the effect of Gb on ATF4 expression. […] The eIF2B-enhancing compound ISRIB was included as positive control for ATF4-regulation.

Row | SMILES | Atf4 mRNA levels in brain tissue, 2b5ho mice ([1]; 4 and 24 hours) | Ddit3 mRNA expression in brain tissue, 2b5ho mice ([1]; 4 and 24 hours) | Trib3 mRNA expression in brain tissue, 2b5ho mice ([1]; 4 and 24 hours, not significant at 4 hours) | Atf4 mRNA expression level in brain tissue, wt mice ([1]; n=2) | number of Plp-expressing cells [2] | GFAP expression and Bergmann glia morphology ([3]; Guanabenz i.p. weekly 2-10 months, cerebellum) | decrease of number of translocated Bergmann glia cell bodies ([3]; Guanabenz i.p. weekly from 2 to 10 months of age, analysed at 11 months, vs saline, p=0.032, reached numbers of untreated WT) | average decrease of number of nestin-positive cells in the corpus callosum [4] | half-life in blood/tissue [5] | amount of MBP protein, cerebellum [6] | amount of MOG protein, cerebellum [6] | amount of MOG protein, forebrain [6] | levels of eIF2a phosphorylation in brain tissue, 4 hours after injection [7] | levels of eIF2a phosphorylation in brain tissue, 24 hours after injection [7] | ATF4 expression under stress [8]
1 | NC(N)=N/N=C/c1c(Cl)cccc1Cl [Guanabenz, guanabenz] | transient decrease | reduced at both time points | reduced at both time points | unaffected | slightly increased in the forebrain and cerebellum, though not significantly | decreased GFAP expression and a normalization of Bergmann glia morphology | 30% | 27% | approximately 6 hours | increased | increased | increased | lower than in saline-injected animals | normalized | increased
2 | N=C(N)NC(=O)Cc1c(Cl)cccc1Cl [Guanfacine, guanfacine] | – | – | – | – | – | – | – | – | – | – | – | – | – | – | small, variable and not statistically significant
3 | O=C(COc1ccc(Cl)cc1)NC1CCC(NC(=O)COc2ccc(Cl)cc2)CC1 (centres unmarked) [ISRIB] | – | – | – | – | – | – | – | – | – | – | – | – | – | – | reduced
